Reference: publication PMC6017366, “Characterization of Two VAO-Type Flavoprotein Oxidases from Myceliophthora thermophila” (Molecules : A Journal of Synthetic Chemistry and Natural …, 2018)

What was measured:
MtVAO713 = biological target: T1, MtVAO713 (Thermothelomyces thermophilus, UniProt G2QMS8); experiment: GC/MS of conversion to 12-ketooleic acid; type: biochemical; settings: 5 mM ricinoleic acid, 8 µM enzyme, 16 h; oxygen as electron acceptor; 50 mM Tris/Cl pH 8.0, 10% DMSO, 30 or 37 °C; very poor substrate
T1 construct: gene MYCTH_2309690; mature secreted protein, signal peptide (first 26 residues) removed; homologous expression in M. thermophila C1; monocovalent FAD (His159); N-glycosylated at Asn103 and Asn131; about 60 kDa on SDS-PAGE, 53 kDa by gel filtration
T1 sequence (G2QMS8 entry or part of it): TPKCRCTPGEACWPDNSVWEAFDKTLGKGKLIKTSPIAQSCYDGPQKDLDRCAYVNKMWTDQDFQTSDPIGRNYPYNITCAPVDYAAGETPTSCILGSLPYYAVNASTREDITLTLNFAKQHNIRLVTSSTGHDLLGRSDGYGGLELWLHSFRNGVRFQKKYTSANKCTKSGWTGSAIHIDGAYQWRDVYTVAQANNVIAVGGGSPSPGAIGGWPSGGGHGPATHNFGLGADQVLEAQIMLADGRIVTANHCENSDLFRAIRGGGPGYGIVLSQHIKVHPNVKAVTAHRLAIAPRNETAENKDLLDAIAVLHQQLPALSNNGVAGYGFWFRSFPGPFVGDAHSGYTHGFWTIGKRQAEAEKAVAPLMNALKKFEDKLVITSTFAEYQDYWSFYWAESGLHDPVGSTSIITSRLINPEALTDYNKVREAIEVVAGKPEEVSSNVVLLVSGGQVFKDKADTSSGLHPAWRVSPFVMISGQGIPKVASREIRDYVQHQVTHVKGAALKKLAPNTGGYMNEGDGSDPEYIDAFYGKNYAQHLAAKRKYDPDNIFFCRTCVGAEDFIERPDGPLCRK

MtVAO615 = biological target: T2, MtVAO615 (Thermothelomyces thermophilus, UniProt G2QDQ9); experiment: X-ray crystal structure ([…] and […] Å); type: binding; settings: covalent; bicovalent 6-S-cysteinyl (Cys222) and 8alpha-N1-histidyl (His157) FAD; crystals at pH 7.5 and pH 5.0
T2 construct: gene MYCTH_2305637; mature secreted protein, signal peptide (first 26 residues) removed; homologous expression in M. thermophila C1; N-glycosylated; bicovalent FAD (His157, Cys222); predicted 60 kDa, about 70 kDa on SDS-PAGE
T2 sequence (G2QDQ9 27-574): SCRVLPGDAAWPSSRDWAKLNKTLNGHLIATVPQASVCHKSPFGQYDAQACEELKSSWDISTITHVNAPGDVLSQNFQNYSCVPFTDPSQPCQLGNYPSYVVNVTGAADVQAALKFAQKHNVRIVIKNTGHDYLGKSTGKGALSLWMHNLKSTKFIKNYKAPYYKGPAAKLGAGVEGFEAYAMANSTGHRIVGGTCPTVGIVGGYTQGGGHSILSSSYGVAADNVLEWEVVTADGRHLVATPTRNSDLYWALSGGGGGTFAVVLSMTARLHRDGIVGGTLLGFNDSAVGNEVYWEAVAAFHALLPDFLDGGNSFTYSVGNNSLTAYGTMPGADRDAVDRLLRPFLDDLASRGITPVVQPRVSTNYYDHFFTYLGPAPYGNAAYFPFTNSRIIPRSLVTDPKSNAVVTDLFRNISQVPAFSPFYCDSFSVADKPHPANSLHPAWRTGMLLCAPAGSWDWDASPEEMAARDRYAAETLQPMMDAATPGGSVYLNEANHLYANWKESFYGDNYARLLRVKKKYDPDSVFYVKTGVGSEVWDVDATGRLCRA

| SMILES | GC/MS of conversion to 12-ketooleic acid (MtVAO713) | X-ray crystal structure (2.0 and 2.2 Å) (MtVAO615) |
| --- | --- | --- |
| CCCCCC[C@@H](O)C/C=C\CCCCCCCC(=O)O [ricinoleic acid] | The conversion of ricinoleic acid by MtVAO713 was confirmed by GC/MS analysis |  |
| Cc1cc2nc3c(=O)[nH]c(=O)nc-3n(C[C@H](O)[C@H](O)[C@H](O)COP(=O)(O)OP(=O)(O)OC[C@H]3O[C@@H](n4cnc5c(N)ncnc54)[C@H](O)[C@@H]3O)c2cc1C [FAD] |  | MtVAO615 harbors a bicovalently linked 6-S-cysteinyl-8α-N1-histidyl FAD |
